Test results from the NIST ThermoML archive (doi:10.1016/j.tca.2016.08.008).
Numbers after ± are expanded uncertainties.

Experiment: molar heat capacity at constant pressure
Conditions: 101.33 kPa, Metastable crystal

O=P([O-])([O-])[O-].[Tb+3] [terbium orthophosphate]
Conditions | molar heat capacity at constant pressure [J/K/mol]
291.41 K, Vacuum adiabatic calorimetry | 108 ± 1.3
294.82 K, Vacuum adiabatic calorimetry | 108.6 ± 1.3
298.47 K, Vacuum adiabatic calorimetry | 109.3 ± 1.3
300 K, Vacuum adiabatic calorimetry | 109.8 ± 1.1
302.47 K, Vacuum adiabatic calorimetry | 110 ± 1.3
307.42 K, Vacuum adiabatic calorimetry | 110.9 ± 1.3
310 K, Vacuum adiabatic calorimetry | 111.5 ± 1.1
313.46 K, Vacuum adiabatic calorimetry | 112.2 ± 1.4
320 K, Vacuum adiabatic calorimetry | 113.1 ± 1.2
320.4 K, Vacuum adiabatic calorimetry | 113.3 ± 1.4
325 K, Vacuum adiabatic calorimetry | 113.9 ± 1.2
327.27 K, Vacuum adiabatic calorimetry | 114.3 ± 1.4
334.07 K, Vacuum adiabatic calorimetry | 115.4 ± 1.4
340 K, Small sample (50 mg) DSC | 116.3 ± 3.9
340.79 K, Vacuum adiabatic calorimetry | 116.6 ± 1.4
347.44 K, Vacuum adiabatic calorimetry | 117.5 ± 1.4
360 K, Small sample (50 mg) DSC | 119 ± 3.9
380 K, Small sample (50 mg) DSC | 121.5 ± 4
400 K, Small sample (50 mg) DSC | 123.7 ± 4.1
420 K, Small sample (50 mg) DSC | 125.6 ± 4.2
433.9 K, Small sample (50 mg) DSC | 128.2 ± 3.1
438.9 K, Small sample (50 mg) DSC | 128.4 ± 3.1
440 K, Small sample (50 mg) DSC | 127.4 ± 4.2
443.9 K, Small sample (50 mg) DSC | 128.3 ± 3.1
448.9 K, Small sample (50 mg) DSC | 128.3 ± 3.1
453.9 K, Small sample (50 mg) DSC | 128.3 ± 3.1
458.9 K, Small sample (50 mg) DSC | 128.5 ± 3.1
460 K, Small sample (50 mg) DSC | 129 ± 4.3
463.9 K, Small sample (50 mg) DSC | 128.6 ± 3.2
468.9 K, Small sample (50 mg) DSC | 129 ± 3.2
473.9 K, Small sample (50 mg) DSC | 129.1 ± 3.2
478.9 K, Small sample (50 mg) DSC | 129.3 ± 3.2
480 K, Small sample (50 mg) DSC | 130.4 ± 4.3
483.9 K, Small sample (50 mg) DSC | 129.7 ± 3.2
488.9 K, Small sample (50 mg) DSC | 130.2 ± 3.2
493.9 K, Small sample (50 mg) DSC | 130.7 ± 3.2
498.9 K, Small sample (50 mg) DSC | 131.4 ± 3.2
500 K, Small sample (50 mg) DSC | 131.7 ± 4.4
503.9 K, Small sample (50 mg) DSC | 131.7 ± 3.2
508.9 K, Small sample (50 mg) DSC | 132.1 ± 3.2
513.9 K, Small sample (50 mg) DSC | 132.7 ± 3.3
518.9 K, Small sample (50 mg) DSC | 132.9 ± 3.3
520 K, Small sample (50 mg) DSC | 132.9 ± 4.4
523.9 K, Small sample (50 mg) DSC | 133.1 ± 3.3
528.9 K, Small sample (50 mg) DSC | 133.7 ± 3.3
533.9 K, Small sample (50 mg) DSC | 134.6 ± 3.3
538.9 K, Small sample (50 mg) DSC | 135.3 ± 3.3
540 K, Small sample (50 mg) DSC | 134 ± 4.4
543.9 K, Small sample (50 mg) DSC | 135.7 ± 3.3
548.9 K, Small sample (50 mg) DSC | 136.1 ± 3.3
553.9 K, Small sample (50 mg) DSC | 136.5 ± 3.3
558.9 K, Small sample (50 mg) DSC | 136.9 ± 3.4
560 K, Small sample (50 mg) DSC | 135 ± 4.5
563.9 K, Small sample (50 mg) DSC | 137.2 ± 3.4
568.9 K, Small sample (50 mg) DSC | 137.5 ± 3.4
573.9 K, Small sample (50 mg) DSC | 138 ± 3.4
578.9 K, Small sample (50 mg) DSC | 138.3 ± 3.4
580 K, Small sample (50 mg) DSC | 135.8 ± 4.5
583.9 K, Small sample (50 mg) DSC | 138.2 ± 3.4
588.9 K, Small sample (50 mg) DSC | 138.1 ± 3.4
593.9 K, Small sample (50 mg) DSC | 138.4 ± 3.4
598.9 K, Small sample (50 mg) DSC | 138.7 ± 3.4
600 K, Small sample (50 mg) DSC | 136.7 ± 4.5
603.9 K, Small sample (50 mg) DSC | 138.6 ± 3.4
608.9 K, Small sample (50 mg) DSC | 138.7 ± 3.4
613.9 K, Small sample (50 mg) DSC | 138.4 ± 3.4
618.9 K, Small sample (50 mg) DSC | 138.5 ± 3.4
620 K, Small sample (50 mg) DSC | 137.4 ± 4.6
623.9 K, Small sample (50 mg) DSC | 138.6 ± 3.4
628.9 K, Small sample (50 mg) DSC | 138.4 ± 3.4
633.9 K, Small sample (50 mg) DSC | 136.7 ± 3.3
638.9 K, Small sample (50 mg) DSC | 135.8 ± 3.3
640 K, Small sample (50 mg) DSC | 138.1 ± 4.6
643.9 K, Small sample (50 mg) DSC | 135.7 ± 3.3
648.9 K, Small sample (50 mg) DSC | 135.9 ± 3.3
653.9 K, Small sample (50 mg) DSC | 136.3 ± 3.3
658.9 K, Small sample (50 mg) DSC | 136.4 ± 3.3
660 K, Small sample (50 mg) DSC | 138.7 ± 4.6
663.9 K, Small sample (50 mg) DSC | 136.8 ± 3.4
668.9 K, Small sample (50 mg) DSC | 136.7 ± 3.3
673.9 K, Small sample (50 mg) DSC | 136.7 ± 3.3
678.9 K, Small sample (50 mg) DSC | 136.8 ± 3.4
680 K, Small sample (50 mg) DSC | 139.3 ± 4.6
683.9 K, Small sample (50 mg) DSC | 136.8 ± 3.4
688.9 K, Small sample (50 mg) DSC | 136.9 ± 3.4
693.9 K, Small sample (50 mg) DSC | 137.1 ± 3.4
698.9 K, Small sample (50 mg) DSC | 137.5 ± 3.4
700 K, Small sample (50 mg) DSC | 139.9 ± 4.6
703.9 K, Small sample (50 mg) DSC | 138 ± 3.4
708.9 K, Small sample (50 mg) DSC | 138.4 ± 3.4
713.9 K, Small sample (50 mg) DSC | 138.9 ± 3.4
718.9 K, Small sample (50 mg) DSC | 139.3 ± 3.4
720 K, Small sample (50 mg) DSC | 140.4 ± 4.7
723.9 K, Small sample (50 mg) DSC | 139.1 ± 3.4
728.9 K, Small sample (50 mg) DSC | 139.3 ± 3.4
733.9 K, Small sample (50 mg) DSC | 139.2 ± 3.4
738.9 K, Small sample (50 mg) DSC | 139.5 ± 3.4
740 K, Small sample (50 mg) DSC | 140.8 ± 4.7
743.9 K, Small sample (50 mg) DSC | 139.8 ± 3.4
748.9 K, Small sample (50 mg) DSC | 140.3 ± 3.4
753.9 K, Small sample (50 mg) DSC | 140.6 ± 3.4
758.9 K, Small sample (50 mg) DSC | 141.1 ± 3.5
760 K, Small sample (50 mg) DSC | 141.2 ± 4.7
763.9 K, Small sample (50 mg) DSC | 141.3 ± 3.5
768.9 K, Small sample (50 mg) DSC | 141.7 ± 3.5
773.9 K, Small sample (50 mg) DSC | 141.7 ± 3.5
778.9 K, Small sample (50 mg) DSC | 141.7 ± 3.5
780 K, Small sample (50 mg) DSC | 141.6 ± 4.7
783.9 K, Small sample (50 mg) DSC | 141.5 ± 3.5
788.9 K, Small sample (50 mg) DSC | 141.5 ± 3.5
793.9 K, Small sample (50 mg) DSC | 141.8 ± 3.5
798.9 K, Small sample (50 mg) DSC | 142.4 ± 3.5
800 K, Small sample (50 mg) DSC | 142 ± 4.7
803.9 K, Small sample (50 mg) DSC | 142.5 ± 3.5
808.9 K, Small sample (50 mg) DSC | 142.6 ± 3.5
813.9 K, Small sample (50 mg) DSC | 142.7 ± 3.5
818.9 K, Small sample (50 mg) DSC | 143.1 ± 3.5
820 K, Small sample (50 mg) DSC | 142.4 ± 4.7
823.9 K, Small sample (50 mg) DSC | 143 ± 3.5
828.9 K, Small sample (50 mg) DSC | 142.9 ± 3.5
833.9 K, Small sample (50 mg) DSC | 143.1 ± 3.5
838.9 K, Small sample (50 mg) DSC | 142.9 ± 3.5
840 K, Small sample (50 mg) DSC | 142.7 ± 4.7
843.9 K, Small sample (50 mg) DSC | 143.2 ± 3.5
848.9 K, Small sample (50 mg) DSC | 142.9 ± 3.5
853.9 K, Small sample (50 mg) DSC | 142.8 ± 3.5
858.9 K, Small sample (50 mg) DSC | 142.7 ± 3.5
860 K, Small sample (50 mg) DSC | 143 ± 4.7
863.9 K, Small sample (50 mg) DSC | 142.4 ± 3.5
868.9 K, Small sample (50 mg) DSC | 142 ± 3.5
873.9 K, Small sample (50 mg) DSC | 141.5 ± 3.5
878.9 K, Small sample (50 mg) DSC | 141.9 ± 3.5
880 K, Small sample (50 mg) DSC | 143.3 ± 4.8
883.9 K, Small sample (50 mg) DSC | 141.8 ± 3.5
888.9 K, Small sample (50 mg) DSC | 141.7 ± 3.5
893.9 K, Small sample (50 mg) DSC | 141.6 ± 3.5
898.9 K, Small sample (50 mg) DSC | 141.8 ± 3.5
900 K, Small sample (50 mg) DSC | 143.6 ± 4.8
903.9 K, Small sample (50 mg) DSC | 141.5 ± 3.5
908.9 K, Small sample (50 mg) DSC | 141.4 ± 3.5
913.9 K, Small sample (50 mg) DSC | 141.7 ± 3.5
918.9 K, Small sample (50 mg) DSC | 141.8 ± 3.5
920 K, Small sample (50 mg) DSC | 143.8 ± 4.8
923.9 K, Small sample (50 mg) DSC | 142.1 ± 3.5
928.9 K, Small sample (50 mg) DSC | 142.7 ± 3.5
933.9 K, Small sample (50 mg) DSC | 143 ± 3.5
938.9 K, Small sample (50 mg) DSC | 142.9 ± 3.5
940 K, Small sample (50 mg) DSC | 144 ± 4.8
943.9 K, Small sample (50 mg) DSC | 142.4 ± 3.5
948.9 K, Small sample (50 mg) DSC | 142.6 ± 3.5
953.9 K, Small sample (50 mg) DSC | 142.6 ± 3.5
958.9 K, Small sample (50 mg) DSC | 143.1 ± 3.5
960 K, Small sample (50 mg) DSC | 144.3 ± 4.8
963.9 K, Small sample (50 mg) DSC | 142.7 ± 3.5
968.9 K, Small sample (50 mg) DSC | 142.8 ± 3.5
973.9 K, Small sample (50 mg) DSC | 142.8 ± 3.5
978.9 K, Small sample (50 mg) DSC | 142.6 ± 3.5
980 K, Small sample (50 mg) DSC | 144.5 ± 4.8
983.9 K, Small sample (50 mg) DSC | 142.5 ± 3.5
988.9 K, Small sample (50 mg) DSC | 142.5 ± 3.5
993.9 K, Small sample (50 mg) DSC | 142.6 ± 3.5
998.9 K, Small sample (50 mg) DSC | 142.9 ± 3.5
1000 K, Small sample (50 mg) DSC | 144.7 ± 4.8
1003.9 K, Small sample (50 mg) DSC | 143 ± 3.5
1008.9 K, Small sample (50 mg) DSC | 143.3 ± 3.5
1009 K, Small sample (50 mg) DSC | 144.8 ± 4.8
